{
  "source": "patent US20250283050A1",
  "about": "“METHOD OF CANCER TREATMENT” (priority 2021, published 2025)",
  "key": {"[1]": {"test_system": "colorectal cancers (CRC) tumor cells", "experiment": "en bloc CRC culture: tumor cell death by PI-staining and FACS", "format": "cell-based, human", "protocol": "(§1) To this end, en bloc colorectal cancers (CRC) or control non-tumor colon mucosal tissues from the same patients were incubated in RPMI based media and treated with DOX for 3 days. The effects of the treatment on tumor or normal cells were then determined by PI-staining and FACS analysis.\n(§2) To this end, en bloc CRC tumor or control colon mucosal tissues were treated with DOX at low non-cytotoxic dosage and then co-cultured with TAMs transfected with Hom-1 or control GFP. After 5 days of co-culturing, the effects of the treatment on the survival of tumor or control normal epithelial cells were determined by PI staining and FACS analysis.\n(§3) Tumor tissue were washed with 1×PBS buffer plus antibiotics and then cut into 0.5 cm pieces. Tissues were cultured in 2 mL of RPMI 1640 medium, supplemented with 2-10% FBS (Sigma) and 1% antibiotic-antimycotic solution (Gibco) in 24-well plate (Corning). The cultures were incubated at a 37° C., 5% CO2 incubator. […] To evaluate the effect of chemotherapeutic agents, chemo-reagents at indicated concentration or PBS was used instead of the anti-PD-1 antibody. For en bloc tissue and macrophage co-culture assay, 0.25×10^6 GFP-Hom-1 or control GFP transfected autologous macrophages of the same patient were added to the en bloc tissue culture wells. After gently shaking, the plate was incubated at 37° C., 5% CO2 for 3-5 days. The en bloc tissues were then subjected to single 1 cell isolation and analysis as described.\nSingle cell suspensions generated from en bloc tissue culture were washed with FACS staining solution (PBS plus 2% FBS), fixed and permeabilized (Invitrogen) and then stained with Ber-EP4 antibodies for normal epithelial cells and CK7, CK19 and CK20 for cancer cells for 30 minutes on ice. After washes with FACS staining solution, cells were stained with FITC-conjugated secondary antibodies for 30 minutes on ice. The cells were then washed with FACS staining solution and fixed in 2% paraformaldehyde in PBS for 30 min or overnight. The cells were washed and resuspended in 200 μL of FACS staining solution and 5 μL of PI staining solution (eBioscience/Fisher Scientific) were added in the solution for 15 minutes. Cell viability were then analyzed with a flow cytometry."}, "[2]": {"test_system": "non-small cell lung cancer (NSCLC)", "experiment": "en bloc tumor culture with chemotherapeutic agent and Hom-1-TAMs: NSCLC", "format": "cell-based", "settings": "agent plus Hom-1-TAMs", "protocol": "(§4) Besides CRC, Hom-1-TAMs reverse immune polarity of PDAC and NSCLC TME (data not shown). The effects of Hom-1-TAM on tumoricidal effects of DOX were further explored on other tumor types, such as PDAC, NSLC, esophageal cancer and stomach cancers.\n(§5) Additional chemo-reagents used in this study are listed below.\nas §3"}, "esophageal cancer": {"test_system": "esophageal cancer", "experiment": "en bloc tumor culture with chemotherapeutic agent and Hom-1-TAMs: esophageal cancer", "format": "cell-based", "settings": "agent plus Hom-1-TAMs", "protocol": "as §4, §5, §3"}, "NFκB": {"test_system": "NFκB", "experiment": "NF-κB activation assay in monocytes", "format": "cell-based", "settings": "primary human monocytes; 24 hour", "protocol": "To determine whether NFκB plays a role in DOX activation of Hom-1 expression in monocytes, the effects of DOX on NFκB expression in primary monocytes were determined.\nHuman monocytes were treated with DOX at indicated concentration or PBS control. After 24 hour of treatment, the nuclear extracts were prepared using a nuclear extract kit (Active Motif, Cat. 40010). The DNA-binding activity of NF-κB p65 was determined using the TransAm assays (Active Motif, Cat. 40097) according to the manufacturer's instructions. Briefly, 2.5 μg nuclear extracts of each sample were incubated with immobilized NF-κB-specific oligonucleotides for 1 hr. The p65 protein bound to DNA was then visualized by incubation with p65-specific antibody, HRP-conjugated secondary antibody and developing solution and measured with a microplate reader with the absorbance at 450 nm."}, "[3]": {"test_system": "NFκB binding to Hom-1 promoter", "experiment": "ChIP assay of NFκB at Hom-1 promoter", "format": "cell-based", "settings": "human monocytes, 1 μM DOX, 24 hours", "protocol": "Human monocytes were treated with 1 μM DOX or PBS control for 24 hours and harvested for ChIP assay. The ChIP procedure was performed with a kit from Upstate biotechnology following the manufacturer's instructions. The NFκB p65 antibody (Cell Signaling Technology, Cat# 8242) was used for the immunoprecipitation. The Rabbit IgG antibody was served as a negative control. The Hom-1 promotor region containing a putative NFκB binding site was amplified with specific primers 5′-[…]-3′ and 5′-[…]-3′. All PCR products were separated on 1% agarose gel and visualized by ethidium bromide staining."}, "PDAC": {"test_system": "PDAC", "experiment": "en bloc tumor culture with chemotherapeutic agent and Hom-1-TAMs: PDAC", "format": "cell-based", "settings": "agent plus Hom-1-TAMs", "protocol": "as §4, §5, §3"}, "[4]": {"test_system": "TAMs and TIL in en bloc CRC", "experiment": "en bloc CRC culture: DOX effects on TAM plasticity and TIL differentiation", "format": "cell-based, human", "source_text": "As DOX induces Hom-1 expression in TAMs in en bloc CRC culture (data not shown), this example illustrates the involvement of Hom-1 in mediating therapeutic effects of DOX.\nConsistent with a key regulatory role of Hom-1 in mediating DOX effects on TAM plasticity and the immune landscape of TME, it was shown that knockdown of Hom-1 expression in TAMs attenuated DOX effects on the expression of M1 and M2 markers and inhibited DOX-induced secretion of pro-inflammatory cytokines (data not shown).\nas §3"}, "[5]": {"test_system": "normal epithelial cells of colon mucosal tissues", "experiment": "en bloc control colon mucosal tissue culture: normal epithelial cell death by PI-staining and FACS", "format": "cell-based, human", "settings": "DOX 3 days", "protocol": "as §1, §2\nTumor tissue were washed with 1×PBS buffer plus antibiotics and then cut into 0.5 cm pieces. Tissues were cultured in 2 mL of RPMI 1640 medium, supplemented with 2-10% FBS (Sigma) and 1% antibiotic-antimycotic solution (Gibco) in 24-well plate (Corning). The cultures were incubated at a 37° C., 5% CO2 incubator. […]\nSingle cell suspensions generated from en bloc tissue culture were washed with FACS staining solution (PBS plus 2% FBS), fixed and permeabilized (Invitrogen) and then stained with Ber-EP4 antibodies for normal epithelial cells and CK7, CK19 and CK20 for cancer cells for 30 minutes on ice. […] Cell viability were then analyzed with a flow cytometry."}, "stomach cancer": {"test_system": "stomach cancer", "experiment": "en bloc tumor culture with chemotherapeutic agent and Hom-1-TAMs: stomach cancer", "format": "cell-based", "settings": "agent plus Hom-1-TAMs", "protocol": "as §4, §5, §3"}, "Hom-1 expression in TAMs": {"test_system": "Hom-1 expression in TAMs", "experiment": "DOX induction of Hom-1 expression", "format": "cell-based, human", "protocol": "Total RNA was isolated by the TRIzol reagent (Life Technologies) and RNA amounts were measured by NanoDrop 2000 (Thermo Scientific). Equal amount of RNA was used for first-strand cDNA synthesis with SuperScript III First-Strand Synthesis System (Life Technologies) according to the manufacturer's protocol. The AccuPrime Taq DNA polymerase system (Life Technologies) was used to amplify Hom-1 cDNA with conventional PCR. Quantitative measurements of Hom-1 and other cDNA were carried out with SYBR Green, using a Mastercycler ep Gradient S (Eppendorf). GAPDH was used as a house keeping gene to normalize mRNA expression. Relative expression profiles of mRNAs were calculated using the comparative Ct method (DDCT method).\nas §3, with “After gently shaking, the plate was incubated at 37° C., 5% CO2 for 3-5 days. The en bloc tissues were then subjected to single 1 cell isolation and analysis as described.” left out"}, "primary human CRC": {"test_system": "primary human CRC", "experiment": "NSG-PDX model of primary human CRC", "format": "in vivo", "settings": "low dosage DOX 1.5 mg/kg tail-vein, alone", "protocol": "To this end, NSG-PDX models of primary human CRC were established according to established methods. One week post-implantation of primary CRC tumors, the mice were tail-vein injected with a low dosage of Hom-1-TAMs. Three days later, low dosage DOX at 1.5 mg/kg were given through tail-vein injection and the DOX injection were repeated after two weeks.\nAnimal models of primary human colon cancers were developed previously. Briefly, 8-week-old NOD. Cg-Prkdc^scid Il2rg^tm1Wjl/SzJ mice (commonly known as NOD scid gamma, or NSG mice) were purchased from the Jackson Laboratory and maintained under specific pathogen-free conditions. Tumors were cut into around 0.5 cm pieces and then surgically implanted into subcutaneous space in flank of NSG mice. After one week of implantation, 0.25×10^6 TAMs transfected with GFP-Hom-1 or control GFP were injected into the mice through tail vain. After three days, 1.5 mg/Kg of DOX or PBS control were tail-vain injected and then repeated after two weeks. The tumor growth was monitored twice weekly and measured by a caliper for 6 weeks. Tumor volumes were calculated according to the formula ½ (length×width^2)."}, "[6]": {"settings": "en bloc CRC culture, agent alone, dose range"}},
  "data": [
    {"compound": "O=c1[nH]cc(F)c(=O)[nH]1", "note": "[5-FU]", "values": [
      {"measurement": "cytocidal effects on tumor cells", "setting": "[1]; [6]", "value": "dosage-dependent cytocidal effects on tumor cells"},
      {"measurement": "tumoricidal effects promoted by Hom-1-TAMs", "setting": "[1]; en bloc CRC culture, agent plus Hom-1-TAMs", "value": "promoted"}
    ]},
    {"compound": "N.N.[Cl][Pt][Cl]", "note": "[Cisplatin]", "values": [
      {"measurement": "tumoricidal effects promoted by Hom-1-TAMs", "setting": "[2]", "value": "promoted"},
      {"measurement": "tumoricidal effects promoted by Hom-1-TAMs", "setting": "esophageal cancer", "value": "promoted"}
    ]},
    {"compound": "COc1cccc2c1C(=O)c1c(O)c3c(c(O)c1C2=O)C[C@@](O)(C(=O)CO)C[C@@H]3O[C@H]1C[C@H](N)[C@H](O)[C@H](C)O1", "note": "[DOX, Doxorubicin]", "values": [
      {"measurement": "tumoricidal effects promoted by Hom-1-TAMs", "setting": "[2]", "value": "promotes tumoricidal function"},
      {"measurement": "NFκB expression", "setting": "NFκB", "value": "induces NFκB expression in primary human monocytes in a dosage dependent manner"},
      {"measurement": "interaction of NFκB with Hom-1 promoter", "setting": "[3]", "value": "promoted the interaction of NFκB with Hom-1 promoter"},
      {"measurement": "cytocidal effects on tumor cells", "setting": "[1]; [6]", "value": "dosage-dependent cytocidal effects on tumor cells"},
      {"measurement": "cytocidal effects on tumor cells", "setting": "[1]; en bloc CRC, DOX alone at non-cytotoxic concentration, 5 days", "value": "little cytocidal effects on tumor cells"},
      {"measurement": "tumoricidal effects promoted by Hom-1-TAMs", "setting": "PDAC", "value": "promotes tumoricidal function"},
      {"measurement": "CD4 T cell differentiation into Treg cells", "setting": "[4]", "value": "reduced CD4 T cell differentiation into Treg cells"},
      {"measurement": "CD8 T cell activation", "setting": "[4]", "value": "increased CD8 T cell activation"},
      {"measurement": "TAM phenotype (M1/M2 markers and cytokines)", "setting": "[4]", "value": "shifted the population of TAMs from M2-like phenotype to M1-like phenotype"},
      {"measurement": "cytotoxic effects on normal epithelial cells", "setting": "[5]", "value": "less cytotoxic effects on normal epithelial cells"},
      {"measurement": "tumoricidal effects promoted by Hom-1-TAMs", "setting": "esophageal cancer", "value": "promotes tumoricidal function"},
      {"measurement": "tumoricidal effects promoted by Hom-1-TAMs", "setting": "stomach cancer", "value": "promotes tumoricidal function"},
      {"measurement": "Hom-1 expression", "setting": "Hom-1 expression in TAMs; cancer cells and macrophages", "value": "potent inducer of Hom-1 expression both in cancer cells and in macrophages"},
      {"measurement": "TAM Hom-1 expression", "setting": "Hom-1 expression in TAMs; en bloc CRC culture", "value": "induced TAM Hom-1 expression in the en bloc CRC culture in a dosage dependent manner"},
      {"measurement": "inhibition of CRC tumorigenesis", "setting": "primary human CRC", "value": "small discernable inhibition on CRC tumorigenesis"}
    ]}
  ]
}
